Here are results for two compounds from patent US9102674B2, “Substituted naphthyridine and quinoline compounds as MAO inhibitors” (DART NEUROSCIENCE (CAYMAN) LTD., priority 2013, dated 2015).

The assay deals with T1, Human recombinant MAO-B (Homo sapiens, UniProt P27338).
T1 construct: host or cells: insect cells
T1 sequence (P27338 1-520): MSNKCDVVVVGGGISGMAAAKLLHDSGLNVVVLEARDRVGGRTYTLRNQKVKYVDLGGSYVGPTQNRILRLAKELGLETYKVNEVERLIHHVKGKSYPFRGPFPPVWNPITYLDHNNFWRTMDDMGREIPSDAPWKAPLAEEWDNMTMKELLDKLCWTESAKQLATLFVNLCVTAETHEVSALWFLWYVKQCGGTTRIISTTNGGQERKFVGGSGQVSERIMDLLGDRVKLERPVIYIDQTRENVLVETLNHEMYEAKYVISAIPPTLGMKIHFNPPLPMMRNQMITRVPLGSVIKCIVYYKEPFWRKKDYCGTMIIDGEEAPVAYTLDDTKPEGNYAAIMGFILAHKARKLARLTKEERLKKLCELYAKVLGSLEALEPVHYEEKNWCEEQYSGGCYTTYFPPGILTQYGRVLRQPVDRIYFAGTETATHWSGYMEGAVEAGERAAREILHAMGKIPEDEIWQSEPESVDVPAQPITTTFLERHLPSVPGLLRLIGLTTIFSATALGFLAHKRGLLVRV
The experiment in a line: MAO-B enzymatic assay (fluorometric, kynuramine). In kind it is biochemical. The conditions noted are these: human recombinant MAO-B expressed in insect cells; kynuramine substrate; values given as bins; read-out: MAO-B (pEC50) (converted). How it is done: The MAO enzymatic assay was performed according to the fluorometric method described by Matsumoto and colleagues (Matsumoto et al., Clin. Biochem. 1985, 18, 126-129) with the following modifications. Human recombinant MAO-A and MAO-B expressed in insect cells were used. For both assays, test compound and/or vehicle were preincubated with purified enzyme in phosphate buffer pH 7.4 for 15 minutes at 37° C. The reaction was initiated by addition of […] kynuramine. Following a 60 minute incubation period, the reaction was terminated by the addition of 6 N NaOH. The amount of 4-hydroxyquinoline that formed was determined by spectrofluorimetrically at 325 nm/465 nm.
Results were converted to percent inhibition, and the EC50 (M) for each reaction was determined using the XLfit program from IDBS (ID Business Solutions Ltd., 2 Occam Court, Surrey Research Park, Guildford, Surrey, GU2 7QB UK). The EC50 represents the concentration of a compound where 50% of its maximal effect is observed. The pEC50 is defined as the negative logarithm of the EC50; a higher pEC50 value therefore corresponds to higher potency in the assay.
Representative compounds of the invention were evaluated in the MAO-B enzymatic assay. Typically, the compounds of the invention show MAO-B inhibitory properties at a concentration of 0.1 to 10 μM, typically at 5-100%.
As depicted in the following Table, these inhibitory properties were mirrored by pEC50 values ranging from 5 (meaning 10^−5 M or 10 μM) to greater than 7 (meaning less than 10^−7 M or 0.1 μM).

As to `CCOC(=O)C(C)(C)c1cnc2cc(OCc3cccc(Cl)c3)ccc2c1` [Example 59, Ethyl 2-(7-((3-chlorobenzyl)oxy)quinolin-3-yl)-2-methylpropanoate], the EC50 was 100 to 1000 nM.

For the compound `CC(C)(O)c1cnc2cc(OCc3ccc(F)cc3)cnc2c1` [Example 65, 2-{7-[(4-Fluorophenyl)methoxy]-1,5-naphthyridin-3-yl}propan-2-ol], the EC50 was under 100 nM.
